Results: patent US5658925A, “Aminobenzoic acid derivatives” (Eisai Co., Ltd., priority 1993, dated 1997)
Counter-ions that a name gives are not always drawn. Like-named read-outs stand apart in the source and are kept apart here.

Key:
[1] = test system: gastric emptying function; experiment: Activity for increasing gastric emptying function; assay type: in vivo, rat (Fischer male); settings: oral, one hour before test food, *: minimum effective dose
Experimental: [Experimental Example 3] Activity for increasing gastric emptying function
This experiment was made according to the method of Decktor et al. [see Eur. J. Pharmacol., 147, 313-316 (1988)]. Fischer male rats (weight: 160 to 180 g) were fasted for 18 hours before 3 ml of a test food comprising methylcellulose, beef bouillon, casein, sugar and corn starch was orally administered to each rat. One hour after the administration, the stomach was extirpated from each rat. The gastric emptying ratio was calculated from the weight of the test food remaining in the stomach. The percentage increment of the gastric emptying function was determined by comparing the gastric emptying ratio of a medicated rat with that of a control rat. Each test compound (5 ml/kg) was orally administered one hour before the administration of the test food. BRL 24924 was used as a control in this experiment.

serotonin 4 = molecular target: T1, serotonin 4 (Rattus norvegicus, UniProt Q62758); experiment: Effect of relaxing the contraction of muscular layer of esophageal mucosa of rat by stimulation with carbachol (activity of serotonin 4 as agonist); assay type: cell-based
T1 construct: The esophagus of a rat was extirpated and freed from the outer tunica propria to obtain the muscular layer of mucosa; from tissue; host or cells: muscular layer of mucosa of rat esophagus
T1 sequence (Q62758 whole entry): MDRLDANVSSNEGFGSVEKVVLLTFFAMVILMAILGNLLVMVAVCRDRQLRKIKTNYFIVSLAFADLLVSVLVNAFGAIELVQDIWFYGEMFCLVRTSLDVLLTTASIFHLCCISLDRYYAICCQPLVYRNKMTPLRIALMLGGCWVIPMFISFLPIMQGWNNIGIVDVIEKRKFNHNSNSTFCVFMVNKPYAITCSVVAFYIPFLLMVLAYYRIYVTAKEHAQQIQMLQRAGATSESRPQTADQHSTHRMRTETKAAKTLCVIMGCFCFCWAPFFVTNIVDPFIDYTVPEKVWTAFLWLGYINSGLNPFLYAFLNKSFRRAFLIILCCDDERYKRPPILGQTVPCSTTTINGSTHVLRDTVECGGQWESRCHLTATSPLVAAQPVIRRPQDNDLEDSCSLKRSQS
Experimental: This experiment was made according to the method of Baxter et al. [see Naunyn-Schmiedeberg's Arch. […] The esophagus of a rat was extirpated and freed from the outer tunica propria to obtain the muscular layer of mucosa. […] A load of 0.5 g was applied to each sample and the reaction was recorded isometrically. 1 μM of carbachol was added to each sample to cause contraction, followed by the cumulative addition thereto of a solution of a test compound. The effect of the test compound was determined as the ratio (%) of relaxation based on the maximum contraction caused by carbachol.

serotonin 3 = molecular target: T2, serotonin 3 (Cavia porcellus, UniProt O70212); experiment: Antagonism against 2-methyl-serotonin-induced contraction of ileum (serotonin 3 antagonism); assay type: cell-based, guinea pig (Hartley male); settings: vs 2-methylserotonin, 30 minutes with test compound, 37° C.
T2 construct: from tissue; host or cells: nonterminal ileum of Hartley male guinea pig
T2 sequence (O70212 20-490): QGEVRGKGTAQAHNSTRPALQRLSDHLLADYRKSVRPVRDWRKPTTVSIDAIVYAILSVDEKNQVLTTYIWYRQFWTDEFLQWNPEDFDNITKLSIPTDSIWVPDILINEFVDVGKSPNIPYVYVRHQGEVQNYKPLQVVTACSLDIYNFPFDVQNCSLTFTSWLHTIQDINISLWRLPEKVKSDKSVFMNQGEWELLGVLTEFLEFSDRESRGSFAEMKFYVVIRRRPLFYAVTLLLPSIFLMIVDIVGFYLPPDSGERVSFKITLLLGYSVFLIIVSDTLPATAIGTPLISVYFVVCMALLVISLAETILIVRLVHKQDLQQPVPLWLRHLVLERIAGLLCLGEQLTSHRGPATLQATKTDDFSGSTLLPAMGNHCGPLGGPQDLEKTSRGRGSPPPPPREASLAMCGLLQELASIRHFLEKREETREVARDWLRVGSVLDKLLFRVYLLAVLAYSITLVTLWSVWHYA
Experimental: [Experimental Example 1] Antagonism against 2-methyl-serotonin-induced contraction of ileum (serotonin 3 antagonism)
This experiment was made according to the method of Sanger et al. [see Eur. J. Pharmacol., 159, 113-124 (1989)]. The nonterminal ileum of a Hartley male guinea pig was suspended in the Krebs solution (37° C.) by applying a load of 0.5 g, and a gaseous mixture comprising 95% of oxygen and 5% of carbon dioxide was passed through the solution. The contraction of the ileum was isometrically determined. After allowing the ileum to stand for one or more hours for stabilization, a solution of a test compound was added to the solution, and after 30 minutes, 2-methylserotonin was noncumulatively added. The pA2 value was calculated from the rightward shift of the dose-response curve of the 2-methylserotonin-induced contraction caused by the test compound according to the method of Rossum et al. [see Arch. Int. Pharmacodyn. 143, 299(1963)]. BRL 24924 (Renzapride) was used as a control in this experiment.
The structural formula of BRL 24924 is as follows: [drawing 19]

[2] = test system: cisplatin-induced vomiting; experiment: Activity against cisplatin-induced vomiting of beagle; assay type: in vivo; settings: through the vein of forefoot, one hour after 3 mg/kg cisplatin, 5-hour period
Experimental: [Experimental Example 2] Activity against cisplatin-induced vomiting of beagle
Beagles weighing 7 to 12 kg were used. 3 mg/kg of cisplatin (a product of Sigma) (1 ml/kg of physiological saline) was administered to each beagle through the vein of one of its forefeet. One hour after the administration, physiological saline (0.2 ml/kg) was administered to a control group of beagles and a solution of a test compound in physiological saline was administered to a test group of beagles, each through the vein of the other forefoot. The frequency of vomiting observed over a 5-hour period from the administration of cisplatin was recorded and the inhibitory ratio of the test compound was calculated according to the following formula.

[3] = 50% relaxation of maximum contraction caused by 1 μM carbachol, cumulative addition, 37° C., read-out: Effect of relaxing the muscular layer of esophageal mucosa of rat EC50
[4] = guinea pig nonterminal ileum, read-out: pA2 (converted)
[5] = pA2, guinea pig nonterminal ileum

Row | SMILES | Percentage increment of gastric emptying function (%) ([1]; 0.03 mg/kg) | Percentage increment of gastric emptying function (%) ([1]; 0.1 mg/kg) | Percentage increment of gastric emptying function (%) ([1]; 0.3 mg/kg) | EC50 (serotonin 4; [3]) [nM] | further results
1 | CC#C[C@H](C)Oc1cc(N)c(Cl)cc1C(=O)NC1CCN2CCOC1C2 (single isomer, unassigned) [20 fraction 1] | 8.9 | 22.9 | 11.5 | 60 | Percentage increment of gastric emptying function (%) ([1]; 0.01 mg/kg): 3.9%; Kb (serotonin 3; [4]): 63.1 nM; Inhibitory ratio against cisplatin-induced vomiting (%) ([2]; 0.1 mg/kg): 22%
2 | CC#C[C@H](C)Oc1cc(N)c(Cl)cc1C(=O)NC1CCN2CCOC1C2 (single isomer, unassigned) [20 fraction 2] | 14.0 | 23.3 | 21.8 | 33 | Kb (serotonin 3; [4]): 12.6 nM; Inhibitory ratio against cisplatin-induced vomiting (%) ([2]; 0.03 mg/kg): 14%; Inhibitory ratio against cisplatin-induced vomiting (%) ([2]; 0.1 mg/kg): 24%
3 | CC#C[C@H](C)Oc1cc(N)c(Cl)cc1C(=O)NC1CC2CC(OC)C(C1)N2C (single isomer, unassigned) [28 fraction 1] |  |  |  | > 10000 | 
4 | CC#C[C@H](C)Oc1cc(N)c(Cl)cc1C(=O)NC1CC2CC(OC)C(C1)N2C (single isomer, unassigned) [28 fraction 2] |  |  |  | > 10000 | 
5 | CC#C[C@H](C)Oc1cc(N)c(Cl)cc1C(=O)NC1CCN2CCCC1C2 (single isomer, unassigned) [31 fraction 1] | 0.8 | 0.8 | 14.1 | 44 | Kb (serotonin 3; [4]): 63.1 nM
6 | CC#C[C@H](C)Oc1cc(N)c(Cl)cc1C(=O)NC1CCN2CCCC1C2 (single isomer, unassigned) [31 fraction 2] | 24.6 | 25.8 | 33.2 | 190 | Percentage increment of gastric emptying function (%) ([1]; 0.01 mg/kg): 4.5%; Kb (serotonin 3; [4]): 5.01 nM; Inhibitory ratio against cisplatin-induced vomiting (%) ([2]; 0.03 mg/kg): 63%; Inhibitory ratio against cisplatin-induced vomiting (%) ([2]; 0.1 mg/kg): 92%
7 | CC#C[C@H](C)Oc1cc(N)c(Cl)cc1C(=O)NC1CCC2CCC1N2C (single isomer, unassigned) [53 fraction 2-1] | 22.2 | 26.7 | 29.0 | 300 | Percentage increment of gastric emptying function (%) ([1]; 0.01 mg/kg): 14.4%; Kb (serotonin 3; [5]): 2.51 nM
8 | CC#C[C@H](C)Oc1cc(N)c(Cl)cc1C(=O)NC1CCC2CCC1N2C (single isomer, unassigned) [53 fraction 2-2] | 6.6 | 21.3 | 28.8 | 180 | Kb (serotonin 3; [5]): 12.6 nM
9 | CC#C[C@H](C)Oc1cc(N)c(Cl)cc1C(=O)NC1CCC2CCC1N2C (single isomer, unassigned) [53 fraction 2] |  | 14.4 | 16.1 | 310 | 
10 | COc1cc(N)c(Cl)cc1C(=O)NC1CCN2CCCC1C2 (centres unmarked) [BRL 24924, Renzapride, reference compound] |  | 1.9 | 6.5 | 300 | Percentage increment of gastric emptying function (%) ([1]; 1 mg/kg): 18.5%; Kb (serotonin 3; [4]): 251 nM; Inhibitory ratio against cisplatin-induced vomiting (%) ([2]; 0.03 mg/kg): 19%; Inhibitory ratio against cisplatin-induced vomiting (%) ([2]; 0.1 mg/kg): 61%
11 | CC#C[C@H](C)Oc1cc(N)c(Cl)cc1C(=O)NC1CC2COCC(C1)N2C (some centres unmarked) [Example 2] | 19.7 | 19.8 | 30.6 |  | Percentage increment of gastric emptying function (%) ([1]; 0.01 mg/kg): 20.5%; EC50 (serotonin 4): 82 nM; Inhibitory ratio against cisplatin-induced vomiting (%) ([2]; 0.03 mg/kg): 14%; Inhibitory ratio against cisplatin-induced vomiting (%) ([2]; 0.1 mg/kg): 53%
12 | CC#C[C@H](C)Oc1cc(N)c(Cl)cc1C(=O)NC1CC2CCCC(C1)N2C (some centres unmarked) [Example 4, hydrochloride] |  |  |  | 1300 | 
13 | CC#C[C@H](C)Oc1cc(N)c(Cl)cc1C(=O)NC1CCN2CCCC1C2 (stereo partly drawn) [Example 6, N-(1-Azabicyclo[3.3.1]non-4α-yl)-4-amino-5-chloro-2-((S-1-methyl-2-butynyl/oxybenzamide hydrochloride] |  |  |  | 110 | Kb (serotonin 3; [4]): 20 nM; Inhibitory ratio against cisplatin-induced vomiting (%) ([2]; 0.1 mg/kg): 77%
14 | CC#C[C@H](C)Oc1cc(N)c(Cl)cc1C(=O)NC1CCN2CCOC1C2 (stereo partly drawn) [Example 15, N-(4-Oxa-1-azabicyclo[3.3.1]non-6α-yl)-4-amino-5-chloro-2-((S)-1-methyl-2-butynyl/oxybenzamide hydrochloride] |  | 24.6 | 30.6 | 35 | 
15 | CC#C[C@H](C)Oc1cc(N)c(Cl)cc1C(=O)NC1CC2CN(C)CC(C1)N2C (stereo partly drawn) [Example 19, (S)-N-(3,9-Dimethyl-3,9-diazabicyclo[3.3.1]non-7α-yl)-4-amino-5-chloro-2-(1-methyl-2-butynyl/oxybenzamidedihydrochloride] |  |  |  | > 10000 | 
16 | CC#C[C@H](C)Oc1cc(N)c(Cl)cc1C(=O)NC1CC2CCC(C1)N2 (some centres unmarked) [Example 29] |  |  |  | > 10000 | 
17 | CC#C[C@H](C)Oc1cc(N)c(Cl)cc1C(=O)NC1C2CCC1CN(C)C2 (stereo partly drawn) [Example 35, (S)-N-(3-Methyl-3-azabicyclo[3.2.1]oct-8α-yl) -4-amino-5-chloro-2-(1-methyl-2-butynyl)oxybenzamide hydrochloride] |  |  |  | 2000 | 
18 | CC#CC(CCOCC)Oc1cc(N)c(Cl)cc1C(=O)NC1CC2CCC(C1)N2C (stereo not drawn) [Example 42, N-(8Methyl-8-azabicylo[3.2.1]oct-3α-yl)-4-amino-5-chloro-2-(1-ethoxyethyl-2-butynyl]oxybenzamide hydrochloride] |  |  |  | 6200 | 
19 | CC#C[C@H](C)Oc1cc(N)c(Cl)cc1C(=O)NC1C2CN(C)CC1CN(C)C2 (stereo partly drawn) [Example 44, (S)-N-(3,7-Dimethyl-3,7-diazabicyclo[3.3.1]non-9-yl)-4-amino-5-chloro-2-(1-methyl-2-butynyl)oxybenzamide hydrochloride] |  |  |  |  | EC50 (serotonin 4): 110 nM
20 | CC#C[C@H](C)Oc1cc(N)c(Cl)cc1C(=O)NC1CC2CC(OCC)CC(C1)N2C (stereo partly drawn) [Example 50, (S)-N-(3-Ethoxy-9-methyl-9-azabicyclo[3.3.1]-1non-9α- or 9β-yl)-4-amino-5-chloro-2-(1-methyl-2-butynyl)oxybenzamide hydrochloride] |  |  |  | > 10000 | 
21 | CC#C[C@H](C)Oc1cc(N)c(Cl)cc1C(=O)NC1C2CC3CC1CN(C3)C2 (stereo partly drawn) [Example 55, (S)-N-(1-Azatricyclo[3.3.1.1^3,7]dec-10-yl)-4-amino-5-chloro-(1-methyl-2-butynyl)oxybenzamide hydrochloride] |  |  |  | 640 | 
